In US10160747B2, “Compounds and methods for kinase modulation, and indications therefor” (Plexxikon Inc., priority 2016, dated 2018):

How the values were obtained:
FLT3-ITD = molecular target: T1, FLT3-ITD (Homo sapiens, UniProt P36888); experiment: FLT3-ITD recombinant enzyme kinase assay (AlphaScreen); format: biochemical; details: 8 pt; read-out: FLT3_ITD 8 pt: IC50
T1 sequence (P36888 1-993): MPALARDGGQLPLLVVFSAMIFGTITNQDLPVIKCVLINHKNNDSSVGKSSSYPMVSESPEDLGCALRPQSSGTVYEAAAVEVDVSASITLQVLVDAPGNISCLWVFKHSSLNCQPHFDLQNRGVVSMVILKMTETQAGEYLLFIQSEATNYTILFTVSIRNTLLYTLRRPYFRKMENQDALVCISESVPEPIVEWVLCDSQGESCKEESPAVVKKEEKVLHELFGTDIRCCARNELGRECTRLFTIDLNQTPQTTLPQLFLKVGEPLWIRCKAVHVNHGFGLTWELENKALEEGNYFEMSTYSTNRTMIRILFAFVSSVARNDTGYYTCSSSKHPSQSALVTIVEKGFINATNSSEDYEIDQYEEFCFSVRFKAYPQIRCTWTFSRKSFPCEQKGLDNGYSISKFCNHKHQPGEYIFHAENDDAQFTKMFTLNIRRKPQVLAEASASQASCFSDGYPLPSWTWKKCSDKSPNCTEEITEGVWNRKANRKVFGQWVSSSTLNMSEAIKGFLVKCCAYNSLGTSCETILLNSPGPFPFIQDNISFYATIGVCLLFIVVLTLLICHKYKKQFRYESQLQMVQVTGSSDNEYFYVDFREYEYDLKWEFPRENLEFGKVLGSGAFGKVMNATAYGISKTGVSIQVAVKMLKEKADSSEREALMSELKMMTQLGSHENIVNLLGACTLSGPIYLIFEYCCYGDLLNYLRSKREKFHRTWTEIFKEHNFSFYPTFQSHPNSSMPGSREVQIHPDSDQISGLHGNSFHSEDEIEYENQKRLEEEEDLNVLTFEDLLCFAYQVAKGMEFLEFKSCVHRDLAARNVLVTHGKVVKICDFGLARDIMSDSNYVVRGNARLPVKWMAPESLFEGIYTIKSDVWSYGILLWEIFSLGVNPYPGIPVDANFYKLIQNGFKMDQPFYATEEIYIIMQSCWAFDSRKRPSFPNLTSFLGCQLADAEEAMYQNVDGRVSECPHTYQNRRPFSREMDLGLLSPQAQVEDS
Outline: (§1)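 Recombinant enzyme phosphorylated biotinylated poly(Glu4-Tyr) peptide (30 nM final) with ATP at 10 μM for FLT3-ITD and FLT3-D835Y or 100 μM for c-KIT. Phosphopeptide was detected by AlphaScreen with streptavidin donor and anti-phosphotyrosine (PY20) acceptor beads (10 μg/mL), read at 580 nm, for IC50 determination.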

FLT3-D835Y = molecular target: T2, FLT3-D835Y (Homo sapiens, UniProt P36888, D835Y); experiment: FLT3-D835Y recombinant enzyme kinase assay (AlphaScreen); format: biochemical; details: 8 pt, GMean
T2 construct: purchased Invitrogen PV3967
T2 sequence (P36888 27-993 D835Y): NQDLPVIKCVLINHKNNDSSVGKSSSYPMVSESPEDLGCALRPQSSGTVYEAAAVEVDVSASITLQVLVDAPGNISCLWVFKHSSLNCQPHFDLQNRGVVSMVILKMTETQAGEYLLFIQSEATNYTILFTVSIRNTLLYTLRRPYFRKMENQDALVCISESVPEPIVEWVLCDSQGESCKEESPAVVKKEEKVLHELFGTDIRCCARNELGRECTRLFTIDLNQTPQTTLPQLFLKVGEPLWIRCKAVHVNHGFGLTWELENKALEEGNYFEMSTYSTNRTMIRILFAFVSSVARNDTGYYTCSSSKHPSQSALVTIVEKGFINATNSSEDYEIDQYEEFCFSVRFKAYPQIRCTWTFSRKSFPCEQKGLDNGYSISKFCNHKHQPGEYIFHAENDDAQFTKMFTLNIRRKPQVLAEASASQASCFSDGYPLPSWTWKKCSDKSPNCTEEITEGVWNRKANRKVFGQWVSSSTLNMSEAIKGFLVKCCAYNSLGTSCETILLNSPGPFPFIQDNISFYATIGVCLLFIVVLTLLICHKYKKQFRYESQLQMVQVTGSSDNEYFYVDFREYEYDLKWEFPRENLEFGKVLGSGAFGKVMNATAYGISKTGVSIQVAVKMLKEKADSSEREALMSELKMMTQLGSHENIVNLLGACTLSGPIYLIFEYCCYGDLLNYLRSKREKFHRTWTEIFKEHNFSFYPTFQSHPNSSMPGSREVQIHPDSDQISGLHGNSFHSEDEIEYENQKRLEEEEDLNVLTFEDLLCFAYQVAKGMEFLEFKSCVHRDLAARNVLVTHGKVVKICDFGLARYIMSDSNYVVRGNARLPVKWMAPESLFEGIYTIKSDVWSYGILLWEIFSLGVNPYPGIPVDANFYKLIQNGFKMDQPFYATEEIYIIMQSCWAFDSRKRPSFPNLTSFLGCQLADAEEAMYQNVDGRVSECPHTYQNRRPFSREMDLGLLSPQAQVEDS
Outline: as §1

| SMILES | IC50 (FLT3-ITD) [µM] | IC50 (FLT3-D835Y) [µM] |
| --- | --- | --- |
| O=C(Cc1ccc(-c2cnc3[nH]cc(Cl)c3n2)cc1F)Nc1cnc(Cl)c(C(F)(F)F)c1 [Compound P-0060, 2-[4-(7-chloro-5H-pyrrolo[2,3-b]pyrazin-2-yl)-2-fluoro-phenyl]-N-[6-chloro-5-(trifluoromethyl)-3-pyridyl]acetamide] | 0.0001 to 10 | 0.0001 to 10 |
| Cc1ncc(NC(=O)Cc2ccc(-c3cnc4[nH]nc(C5CC5)c4c3)cc2F)cc1C(F)(F)F [Compound P-0066, 2-(4-(3-cyclopropyl-1H-pyrazolo[3,4-b]pyridin-5-yl)-2-fluorophenyl)-N-(6-methyl-5-(trifluoromethyl)pyridin-3-yl)acetamide] | 0.0001 to 10 | 0.0001 to 10 |
| Cc1nn(C)cc1Nc1ncc(-c2ccc(CC(=O)Nc3cnc(C)c(C(F)(F)F)c3)c(F)c2)cn1 [Compound P-0077, 2-[4-[2-[(1,3-dimethylpyrazol-4-yl)amino]pyrimidin-5-yl]-2-fluoro-phenyl]-N-[6-methyl-5-(trifluoromethyl)-3-pyridyl]acetamide] | 0.0001 to 10 | 0.0001 to 10 |
| O=C(Cc1cc(F)c(-c2cnc(Nc3cnn4ccccc34)nc2)cc1F)Nc1cncc(C(F)(F)F)c1 [Compound P-0075, 2-[2,5-difluoro-4-[2-(pyrazolo[1,5-a]pyridin-3-ylamino)pyrimidin-5-yl]phenyl]-N-[5-(trifluoromethyl)-3-pyridyl]acetamide] | 0.0001 to 10 | 0.0001 to 10 |
| CC(=O)c1c[nH]c2ncc(-c3ccc(CC(=O)Nc4cncc(C(F)(F)F)c4)c(F)c3)cc12 [Compound P-0055, 2-[4-(3-acetyl-1H-pyrrolo[2,3-b]pyridin-5-yl)-2-fluoro-phenyl]-N-[5-(trifluoromethyl)-3-pyridyl]acetamide] | 0.0001 to 10 | 0.0001 to 10 |
| CCC(=O)c1c[nH]c2ncc(-c3ccc(CC(=O)Nc4cnc(C)c(C(F)(F)F)c4)c(F)c3)cc12 [Compound P-0070, 2-[2-fluoro-4-(3-propanoyl-1H-pyrrolo[2,3-b]pyridin-5-yl)phenyl]-N-[6-methyl-5-(trifluoromethyl)-3-pyridyl]acetamide] | 0.0001 to 10 | 0.0001 to 10 |
| O=C(Cc1ccc(-c2cnc3[nH]nc(C4CC4)c3c2)cc1F)Nc1cncc(C(F)(F)F)c1 [Compound P-0072, 2-[4-(3-cyclopropyl-1H-pyrazolo[3,4-b]pyridin-5-yl)-2-fluoro-phenyl]-N-[5-(trifluoromethyl)-3-pyridyl]acetamide] | 0.0001 to 10 | 0.0001 to 10 |
| O=C(Cc1ccc(-c2cnc3[nH]nc(C4CC4)c3c2)cc1)Nc1cncc(C(F)(F)F)c1 [Compound P-0073, 2-[4-(3-cyclopropyl-1H-pyrazolo[3,4-b]pyridin-5-yl)phenyl]-N-[5-(trifluoromethyl)-3-pyridyl]acetamide] | 0.0001 to 10 | 0.0001 to 10 |
| Cn1cc(Nc2ncc(-c3ccc(CC(=O)Nc4cncc(C5CC5)c4)c(F)c3)cn2)cn1 [Compound P-0081, N-(5-cyclopropyl-3-pyridyl)-2-[2-fluoro-4-[2-[(1-methylpyrazol-4-yl)amino]pyrimidin-5-yl]phenyl]acetamide] | 0.0001 to 10 | 0.0001 to 10 |
| O=C(Cc1ccc(-c2cnc(Nc3cnn4ccccc34)nc2)cc1F)Nc1cncc(C(F)(F)F)c1 [Compound P-0058, 2-[2-fluoro-4-[2-(pyrazolo[1,5-a]pyridin-3-ylamino)pyrimidin-5-yl]phenyl]-N-[5-(trifluoromethyl)-3-pyridyl]acetamide] | 0.0001 to 10 | 0.0001 to 10 |
| Cc1ncc(NC(=O)Cc2ccc(-c3cnc4[nH]cc(Cl)c4n3)cc2F)cc1C(F)(F)F [Compound P-0059, 2-[4-(7-chloro-5H-pyrrolo[2,3-b]pyrazin-2-yl)-2-fluoro-phenyl]-N-[6-methyl-5-(trifluoromethyl)-3-pyridyl]acetamide] | 0.0001 to 10 | 0.0001 to 10 |
| O=C(Cc1ccc(-c2cnc(Nc3cnn4ccccc34)nc2)cc1)Nc1cncc(C(F)(F)F)c1 [Compound P-0074, 2-[4-[2-(pyrazolo[1,5-a]pyridin-3-ylamino)pyrimidin-5-yl]phenyl]-N-[5-(trifluoromethyl)-3-pyridyl]acetamide] | 0.0001 to 10 | 0.0001 to 10 |
| COc1ncc(NC(=O)Cc2cc(F)c(-c3cnc4[nH]cc(F)c4c3)cc2F)cc1C(F)(F)F [Compound P-0051, 2-[2,5-difluoro-4-(3-fluoro-1H-pyrrolo[2,3-b]pyridin-5-yl)phenyl]-N-[6-methoxy-5-(trifluoromethyl)-3-pyridyl]acetamide] | 0.0001 to 10 | 0.0001 to 10 |
| Cc1cc(CC(=O)Nc2cccc(C(F)(F)F)c2)ccc1-c1cnc2[nH]c(-c3ccccc3)cc2c1 [Compound P-0002, 2-[3-methyl-4-(2-phenyl-1H-pyrrolo[2,3-b]pyridin-5-yl)phenyl]-N-[3-(trifluoromethyl)phenyl]acetamide] | 0.0001 to 10 | 0.0001 to 10 |
| Cc1ncc(NC(=O)Cc2ccc(-c3cnc4[nH]cc(Cl)c4n3)cc2)cc1C(F)(F)F [Compound P-0079, 2-(4-(7-chloro-5H-pyrrolo[2,3-b]pyrazin-2-yl)phenyl)-N-(6-methyl-5-(trifluoromethyl)pyridin-3-yl)acetamide] | 0.0001 to 10 | 0.0001 to 10 |
| Cn1cc(Nc2ncc(-c3ccc(CC(=O)Nc4cncc(C(C)(F)F)c4)c(F)c3)cn2)cn1 [Compound P-0090, N-[5-(1,1-difluoroethyl)-3-pyridyl]-2-[2-fluoro-4-[2-[(1-methylpyrazol-4-yl)amino]pyrimidin-5-yl]phenyl]acetamide] | 0.0001 to 10 | 0.0001 to 10 |
| O=C(Cc1ccc(-c2cnc3[nH]cc(F)c3c2)cc1F)Nc1ccnc(C(F)(F)F)c1 [Compound P-0029, 2-[2-fluoro-4-(3-fluoro-1H-pyrrolo[2,3-b]pyridin-5-yl)phenyl]-N-[2-(trifluoromethyl)-4-pyridyl]acetamide] | 0.0001 to 10 | 0.0001 to 10 |
| COc1ncc(NC(=O)Cc2ccc(-c3cnc4[nH]cc(F)c4c3)cc2F)cc1C(F)(F)F [Compound P-0034, 2-[2-fluoro-4-(3-fluoro-1H-pyrrolo[2,3-b]pyridin-5-yl)phenyl]-N-[6-methoxy-5-(trifluoromethyl)-3-pyridyl]acetamide] | 0.0001 to 10 | 0.0001 to 10 |
| CCC(=O)c1c[nH]c2ncc(-c3ccc(CC(=O)Nc4cncc(C(F)(F)F)c4)c(F)c3)cc12 [Compound P-0068, 2-[2-fluoro-4-(3-propanoyl-1H-pyrrolo[2,3-b]pyridin-5-yl)phenyl]-N-[5-(trifluoromethyl)-3-pyridyl]acetamide] | 0.0001 to 10 | 0.0001 to 10 |
| COc1ncc(NC(=O)Cc2ccc(-c3cnc(Nc4cnn(C)c4)nc3)cc2F)cc1C(F)(F)F [Compound P-0089, 2-[2-fluoro-4-[2-[(1-methylpyrazol-4-yl)amino]pyrimidin-5-yl]phenyl]-N-[6-methoxy-5-(trifluoromethyl)-3-pyridyl]acetamide] | 0.0001 to 10 | 0.0001 to 10 |
